Test results as given in patent publication US20150132404A1, “Equine feed for the reduction of ulcers in performance horses” (priority 2013, published 2015).

Tested on: horses
Assay: Observation of horses fed the feed supplement mixture (testing of the product)
Type: in vivo, horse
Description: A dry horse feed supplement for the prevention and treatment of ulcers in horses, especially those involved in performance activities, provides a feed supplement mixture comprising a quantity of forage or filler product; a quantity of grain product, a quantity of protein product, a quantity of roughage product, essential vitamins and trace minerals, a yeast product, fat, molasses, a measured quantity of thiamine (Vitamin B1) and a measured quantity of sodium bicarbonate. The feed supplement mixture is fed to a horse based upon the total weight of the horse, in an amount between 0.50-1.50% of the body weight, depending upon the level of work and activity stress of the horse.
The feed composition ingredients, delivered in the parameters set above with regard to content quantity by percentage includes the ingredients list, in order of most ingredient quantity to least ingredients quantity, provides the feed containing no less than 14% crude protein, 6.5% crude fat, a no more than 22% crude fiber, no less than 0.6% and no more than 1% calcium, no less than 0.3% phosphorus, as well as quantities of zinc, copper, selenium, Vitamin A and Vitamin E. There are special blends suited for older performance horses and other blends for various younger performance horses. […]

Structure (SMILES)	pH level in the digestive tract (sodium bicarbonate at the recommended levels in the feed)	effect on demeanor / stress level of the horse (fed in the feed supplement mixture at 0.5-1.5% of body weight)
O=C([O-])O.[Na+] [sodium bicarbonate]	acts as a buffer and maintains an optimal ph level in the digestive tract	
Cc1ncc(C[n+]2csc(CCO)c2C)c(N)n1 [thiamine]		calming effect on horses
